Measured values: patent US6514975B1, “Anti-inflammatory piperazinyl-benzyl-tetrazole derivatives and intermediates thereof” (Pfizer Inc, priority 1997, dated 2003)

What was measured:
[1] = biological target: T1, delta opioid receptor, mouse vas deferens (MVD)(δ) (Mus musculus, UniProt P32300); assay: delta opioid agonist activity in mouse vas deferens (inhibition of electrically-induced contractions); conditions: isolated mouse vas deferens; inhibition of electrically-induced contractions in the presence of 300 nM mu-selective antagonist CTOP; measure of δ agonism
T1 construct: tissue Charles River; host or cells: isolated mouse vas deferens (DC1 strain)
T1 sequence (P32300 whole entry): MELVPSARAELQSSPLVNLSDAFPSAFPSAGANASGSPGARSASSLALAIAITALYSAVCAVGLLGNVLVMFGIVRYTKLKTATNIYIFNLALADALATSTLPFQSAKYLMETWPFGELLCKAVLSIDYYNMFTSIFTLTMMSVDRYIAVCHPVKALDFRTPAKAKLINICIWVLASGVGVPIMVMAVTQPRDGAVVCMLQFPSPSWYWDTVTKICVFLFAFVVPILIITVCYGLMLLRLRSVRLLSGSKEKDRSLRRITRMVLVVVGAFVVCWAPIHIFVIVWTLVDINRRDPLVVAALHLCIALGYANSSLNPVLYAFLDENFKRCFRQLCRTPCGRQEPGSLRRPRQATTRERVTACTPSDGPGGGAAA
Protocol: Opioid (delta, mu and kappa) activity was studied in two isolated tissues, the mouse vas deferens (MVD)(δ) and the guinea-pig myentric plexus with attached longitudinal muscle (GPMP)(μ and κ).
MVD (DC1 strain, Charles River, 25-35 g) were suspended in 15 ml organ baths containing Mg^++-free Krebs' buffer of the following composition (mM): NaCl, 119; KCl, 4.7; NaHCO3, 25; KH2PO4, 1.2; CaCl2, 2,5 and glucose, 11. The buffer was gassed with 95% O2 and 5% CO2. The tissues were suspended between platinum electrodes, attached to an isometric transducer with 500 mg tension and stimulated with 0.03 Hz pulses of 1-msec pulse-width at supramaxinal voltage. IC50 values were determined by the regression analysis of concentration-response curves for inhibition of electrically-induced contractions in the presence of 300 nM of the mu-selective antagonist CTOP. This test is a measure of δ agonism.
The delta opioid agonist activity of a number of compounds were determined in mouse vas deferens (as described above) with the following results: […]

C=CCN1C[C@H](C)N([C@H](c2ccc(-c3nnn[nH]3)cc2)c2cccc(O)c2)C[C@H]1C [Example 1, (+)-5-{4-[(R)-α-(2(S),5(R)-4-Allyl-2,5-dimethyl-1-piperazinyl)-3-hydroxybenzyl]phenyl}-1H-tetrazole]
IC50 [1]: 0.2 nM

C=CCN1C[C@H](C)N([C@H](c2ccc(-c3nnn(CCCCC(=O)O)n3)cc2)c2cccc(O)c2)C[C@H]1C [Example 42, (+)-5-(5-{4-[(R)-α-(2(S),5(R)-4-Allyl-2,5-dimethyl-1-piperazinyl)-3-hydroxybenzyl]phenyl}-2-tetrazolyl)valeric Acid]
IC50 [1]: 0.316 nM

C[C@@H]1CN([C@H](c2ccc(-c3nnn[nH]3)cc2)c2cccc(O)c2)[C@@H](C)CN1Cc1ccccc1 [Example 4, (−)-5-{4-[(R)-α-(2(S),5(R)-4-benzyl-2,5-dimethyl-1-piperazinyl)-3-hydroxybenzyl]phenyl}-1H-tetrazole]
IC50 [1]: 0.0126 nM

C=CCN1C[C@H](C)N([C@H](c2ccc(-c3nnn(CCOCC(=O)O)n3)cc2)c2cccc(O)c2)C[C@H]1C
melting point: 137 to 140 °C
